The subject of one experiment is GIST 430 cells. Description: GIST 430 Cell Proliferation Assay (resazurin). Type of experiment: cell-based. Particulars: Homo sapiens; GIST430 cell proliferation. In a few lines:
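Five thousand cells per well were exposed to serially diluted compound in complete growth medium for 115 h at 37 degrees Celsius, 5% CO2. Resazurin was then added for a further 5 h, fluorescence read at 540 nm excitation/600 nm emission, and IC50 values calculated.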
(The colour change of resazurin is a common sign of viable cells or microbes.)

A further experiment concerns Ba/F3 KIT mutant cells. Description: Ba/F3 mutant KIT Cell Proliferation Assays (resazurin). It counts as cell-based. The settings on record: Mus musculus, BaF3. The essentials:
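IC50 values come from resazurin fluorescence (ex 540, em 600) after 5 h dye exposure, added as a 440 μM solution. Cells were IL-3-independent Ba/F3 expressing mutant KIT from a lentiviral vector, puromycin-selected.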

The target of a further experiment is c-KIT kinase (uKIT) (Homo sapiens (Human), UniProt P10721). Description: Biochemical Assay for uKIT (coupled pyruvate kinase/lactate dehydrogenase assay). Particulars: Inhibition of biochemical activity of uKIT kinase; 1 mM ATP. In a few lines:
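Continuous coupled PK/LDH assay following NADH oxidation at 340 nm for 6 h at 30° C, with 16 nM or 4.36 nM KIT (two constructs), 0.7 mg/mL PE4Y, 1 mM ATP, pH 7.5. Rates from the 2-3 h window converted to percent inhibition versus controls; IC50 fitted.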

Setting [1] is: Ba/F3 KIT AYdup-V654A mutant cell proliferation, read-out: AYdup-V654A IC50.
[2] abbreviates: Ba/F3 KIT exon11del-V654A mutant cell proliferation, read-out: exon11del-V654A IC50.
Where [3] appears, read: Ba/F3 KIT exon11del-Y823D mutant cell proliferation, read-out: exon11del-Y823D IC50.

13 compounds from patent publication US20240116877A1, “KIT KINASE INHIBITORS AND METHODS OF USE THEREOF” (Deciphera Pharmaceuticals, LLC, priority 2021, published 2024) can be followed below.

The structures appear in SMILES notation. Read-outs that look alike come from different tables or passages of the source.

Chain of c-KIT kinase (uKIT) (P10721 other isoform, or with tags, fused parts or gaps): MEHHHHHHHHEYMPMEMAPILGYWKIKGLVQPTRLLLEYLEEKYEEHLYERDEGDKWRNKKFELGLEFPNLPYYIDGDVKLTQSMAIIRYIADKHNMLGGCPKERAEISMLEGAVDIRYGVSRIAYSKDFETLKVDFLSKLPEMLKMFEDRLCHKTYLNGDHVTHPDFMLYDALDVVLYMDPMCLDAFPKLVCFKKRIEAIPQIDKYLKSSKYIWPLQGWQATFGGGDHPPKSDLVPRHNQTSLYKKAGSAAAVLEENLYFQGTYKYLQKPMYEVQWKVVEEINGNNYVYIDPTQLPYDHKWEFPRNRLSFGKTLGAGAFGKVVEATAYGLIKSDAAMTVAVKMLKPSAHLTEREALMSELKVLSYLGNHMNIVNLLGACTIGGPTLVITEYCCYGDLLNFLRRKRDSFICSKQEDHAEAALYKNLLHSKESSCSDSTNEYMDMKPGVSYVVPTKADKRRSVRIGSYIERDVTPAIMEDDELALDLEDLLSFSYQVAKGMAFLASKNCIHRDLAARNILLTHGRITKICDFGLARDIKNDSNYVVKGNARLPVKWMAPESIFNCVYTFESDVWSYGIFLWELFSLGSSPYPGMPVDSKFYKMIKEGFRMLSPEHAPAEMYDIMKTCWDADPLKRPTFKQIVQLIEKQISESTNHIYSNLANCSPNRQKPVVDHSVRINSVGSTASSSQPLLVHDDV

For orientation: IC50 means the concentration that gives 50% inhibition. With `COCCOc1cc(OC)c2c(Nc3ccc(NC(=O)CC(=O)NC4CCCC4)cc3)ncnc2c1` [Example 176], the half-maximal inhibitory concentration (IC50) fell in the range of 10 to 100 nM in the experiment with GIST 430 cells; 10 to 100 nM with Ba/F3 KIT mutant cells (Ba/F3 KIT AYdup mutant cell proliferation, read-out: AYdup IC50); 10 to 100 nM in the experiment on Ba/F3 KIT mutant cells (Ba/F3 KIT AYdup-D816G mutant cell proliferation, read-out: AYdup-D816G IC50); 10 to 100 nM in the experiment with Ba/F3 KIT mutant cells (setting [1]); 100 to 1000 nM in the experiment with Ba/F3 KIT mutant cells (setting [2]); 10 to 100 nM in the experiment with Ba/F3 KIT mutant cells (setting [3]). At c-KIT kinase (uKIT), this compound returned a 50% inhibitory concentration (IC50) of 10 to 100 nM.
As to `COCCOc1cc(OC)c2c(Nc3ccc(NC(=O)CC(=O)NC(C)(C)C)cc3)ncnc2c1` [Example 177], the concentration for half-maximal inhibition (IC50) in the experiment with GIST 430 cells fell in the range of 10 to 100 nM; in the experiment with Ba/F3 KIT mutant cells (setting [1]) it was 10 to 100 nM; with Ba/F3 KIT mutant cells (setting [2]) it was 100 to 1000 nM; with Ba/F3 KIT mutant cells (setting [3]), 100 to 1000 nM; at c-KIT kinase (uKIT), 10 to 100 nM.
Take `COCCOc1cc(F)c2c(Nc3ccc(NC(=O)CC(=O)N4C[C@@H](C)O[C@@H](C)C4)cc3)ncnc2c1` [Example 179]: the IC50 with GIST 430 cells, in the experiment on Ba/F3 KIT mutant cells (setting [1]), with Ba/F3 KIT mutant cells (setting [2]), with Ba/F3 KIT mutant cells (setting [3]) and at c-KIT kinase (uKIT) was 100 to 1000 nM throughout.
Take `COCCOc1cc(OC)c2c(Nc3ccc(NC(=O)NCCC(C)(C)F)cc3)ncnc2c1` [Example 181]: the 50% inhibitory concentration (IC50) is 10 to 100 nM in the experiment with GIST 430 cells; 10 to 100 nM in the experiment on Ba/F3 KIT mutant cells (setting [1]); 10 to 100 nM with Ba/F3 KIT mutant cells (setting [2]); at most 10 nM with Ba/F3 KIT mutant cells (setting [3]); at most 10 nM on c-KIT kinase (uKIT).
For `COCCOc1cc(OC)c2c(Nc3ccc(NC(=O)NCCC(C)(C)C#N)cc3)ncnc2c1` [Example 182], the IC50 in the experiment with GIST 430 cells, with Ba/F3 KIT mutant cells (setting [1]), in the experiment with Ba/F3 KIT mutant cells (setting [2]), with Ba/F3 KIT mutant cells (setting [3]) and against c-KIT kinase (uKIT) was 10 to 100 nM each time.
With `COCCOc1cc(OC)c2c(Nc3ccc(NC(=O)CC(=O)NC4CCC4)cc3)ncnc2c1` [Example 183], the IC50 with GIST 430 cells is 10 to 100 nM; with Ba/F3 KIT mutant cells (setting [1]), at most 10 nM; with Ba/F3 KIT mutant cells (setting [2]) it was 10 to 100 nM; in the experiment with Ba/F3 KIT mutant cells (setting [3]), 10 to 100 nM; against c-KIT kinase (uKIT), 10 to 100 nM.
Consider `CCN(CC)C(=O)CC(=O)Nc1ccc(Nc2ncnc3cc(OCCOC)cc(F)c23)cc1` [Example 184], for which the IC50 is 10 to 100 nM with GIST 430 cells; at most 10 nM in the experiment on Ba/F3 KIT mutant cells (setting [1]); 100 to 1000 nM in the experiment on Ba/F3 KIT mutant cells (setting [2]); 100 to 1000 nM in the experiment on Ba/F3 KIT mutant cells (setting [3]); 10 to 100 nM at c-KIT kinase (uKIT).
`COCCOc1cc(F)c2c(Nc3ccc(NC(=O)CC(=O)N4CCOCC4)cc3)ncnc2c1` [Example 185]: the half-maximal inhibitory concentration (IC50) was 100 to 1000 nM in the experiment with GIST 430 cells; over 1000 nM with Ba/F3 KIT mutant cells (setting [1]); over 1000 nM in the experiment with Ba/F3 KIT mutant cells (setting [2]); over 1000 nM in the experiment on Ba/F3 KIT mutant cells (setting [3]); 100 to 1000 nM at c-KIT kinase (uKIT).
In the case of `COCCOc1cc(F)c2c(Nc3ccc(NC(=O)CC(=O)N4CCCC4)cc3)ncnc2c1` [Example 186], the IC50 in the experiment with GIST 430 cells was over 1000 nM; in the experiment on Ba/F3 KIT mutant cells (setting [1]) it was over 1000 nM; with Ba/F3 KIT mutant cells (setting [2]), over 1000 nM; in the experiment with Ba/F3 KIT mutant cells (setting [3]), over 1000 nM; on c-KIT kinase (uKIT), 100 to 1000 nM.
`COCCOc1cc(F)c2c(Nc3ccc(NC(=O)CC(=O)N4CCCCC4)cc3)ncnc2c1` [Example 187]: the IC50 is 100 to 1000 nM in the experiment on GIST 430 cells; 100 to 1000 nM with Ba/F3 KIT mutant cells (setting [1]); over 1000 nM in the experiment with Ba/F3 KIT mutant cells (setting [2]); over 1000 nM with Ba/F3 KIT mutant cells (setting [3]); 100 to 1000 nM against c-KIT kinase (uKIT).
Turning to `COCCOc1cc(F)c2c(Nc3ccc(NC(=O)CC(=O)N4C5CCC4CC5)cc3)ncnc2c1` [Example 188], the IC50 in the experiment with GIST 430 cells fell in the range of 100 to 1000 nM; in the experiment with Ba/F3 KIT mutant cells (setting [1]) it was 100 to 1000 nM; in the experiment with Ba/F3 KIT mutant cells (setting [2]), 100 to 1000 nM; with Ba/F3 KIT mutant cells (setting [3]), 100 to 1000 nM; against c-KIT kinase (uKIT) it was 10 to 100 nM.
Turning to `COCCOc1cc(F)c2c(Nc3ccc(NC(=O)CC(=O)N4CCCC4C(C)(C)C)cc3)ncnc2c1` (stereo not shown) [Example 189], the half-inhibitory concentration (IC50) is 100 to 1000 nM with GIST 430 cells; 100 to 1000 nM in the experiment with Ba/F3 KIT mutant cells (setting [1]); 100 to 1000 nM with Ba/F3 KIT mutant cells (setting [2]); 100 to 1000 nM in the experiment with Ba/F3 KIT mutant cells (setting [3]); 10 to 100 nM against c-KIT kinase (uKIT).
Take `COCCCc1ccc2c(Nc3ccc(NC(=O)NCCC(C)(C)F)cc3)cnnc2c1` [Example 190, 1-(3-fluoro-3-methylbutyl)-3-(4-((7-(3-methoxypropyl)cinnolin-4-yl)amino)phenyl)urea]: the IC50 in the experiment with GIST 430 cells, in the experiment with Ba/F3 KIT mutant cells (setting [1]), in the experiment on Ba/F3 KIT mutant cells (setting [2]), in the experiment with Ba/F3 KIT mutant cells (setting [3]) and against c-KIT kinase (uKIT) was 10 to 100 nM in each case.
